Source: the supplement of paper PMC10307832

Key:
Test in all cases: relative viability (nuclei count vs DMSO), 5 days (fraction); higher = more cells survive
201T = tested on: 201T
How it was run: (§1)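 Medians of duplicate plates are given as relative viability. That measure is the nuclei count in treated wells divided by the count in vehicle wells. Counts were taken on 4× images of lung cancer cell lines in 1536-well plates, 5 days after pin-tool dosing the day after seeding with one drug alone or a fixed anchor-drug dose plus five library-drug doses (not always all listed) in √10 steps.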

A-427 = tested on: A-427
How it was run: as §1

COR-L23 = tested on: COR-L23
How it was run: as §1

H3255 = tested on: H3255
How it was run: as §1

HCC-44 = tested on: HCC-44
How it was run: as §1

LC-2-ad = tested on: LC-2-ad
How it was run: as §1

LCLC-103H = tested on: LCLC-103H
How it was run: as §1

LCLC-97TM1 = tested on: LCLC-97TM1
How it was run: as §1

LK-2 = tested on: LK-2
How it was run: as §1

LU99A = tested on: LU99A
How it was run: as §1

NCI-H1563 = tested on: NCI-H1563
How it was run: as §1

NCI-H1650 = tested on: NCI-H1650
How it was run: as §1

NCI-H1793 = tested on: NCI-H1793
How it was run: as §1

NCI-H2228 = tested on: NCI-H2228
How it was run: as §1

NCI-H2347 = tested on: NCI-H2347
How it was run: as §1

NCI-H23 = tested on: NCI-H23
How it was run: as §1

NCI-H460 = tested on: NCI-H460
How it was run: as §1

NCI-H596 = tested on: NCI-H596
How it was run: as §1

NCI-H727 = tested on: NCI-H727
How it was run: as §1

PC-14 = tested on: PC-14
How it was run: as §1

SW 1573 = tested on: SW 1573
How it was run: as §1

SW 900 = tested on: SW 900
How it was run: as §1

Cc1sc2c(c1C)C(c1ccc(Cl)cc1)=N[C@@H](CC(=O)OC(C)(C)C)c1nnc(C)n1-2 [JQ1] + COc1cccc2cc(-c3nc([C@H]4CC[C@H](C(=O)O)CC4)n4ncnc(N)c34)[nH]c12 [OSI-027] (partner 0.5 µM)
relative viability (201T; first compound 0.04 µM): 0.761
relative viability (201T; first compound 0.1265 µM): 0.596
relative viability (201T; first compound 0.4 µM): 0.688
relative viability (201T; first compound 1.265 µM): 0.238
relative viability (201T; first compound 4 µM): 0.201
relative viability (A-427; first compound 0.04 µM): 0.468
relative viability (A-427; first compound 0.1265 µM): 0.45
relative viability (A-427; first compound 0.4 µM): 0.458
relative viability (A-427; first compound 1.265 µM): 0.3
relative viability (A-427; first compound 4 µM): 0.293
relative viability (COR-L23; first compound 0.04 µM): 0.861
relative viability (COR-L23; first compound 0.1265 µM): 0.662
relative viability (COR-L23; first compound 0.4 µM): 0.699
relative viability (COR-L23; first compound 1.265 µM): 0.293
relative viability (COR-L23; first compound 4 µM): 0.46
relative viability (H3255; first compound 0.04 µM): 0.532
relative viability (H3255; first compound 0.1265 µM): 0.672
relative viability (H3255; first compound 0.4 µM): 0.629
relative viability (H3255; first compound 1.265 µM): 0.438
relative viability (H3255; first compound 4 µM): 0.444
relative viability (HCC-44; first compound 0.04 µM): 0.477
relative viability (HCC-44; first compound 0.1265 µM): 0.293
relative viability (HCC-44; first compound 0.4 µM): 0.484
relative viability (HCC-44; first compound 1.265 µM): 0.288
relative viability (HCC-44; first compound 4 µM): 0.214
relative viability (LC-2-ad; first compound 0.04 µM): 0.77
relative viability (LC-2-ad; first compound 0.1265 µM): 0.543
relative viability (LC-2-ad; first compound 0.4 µM): 0.62
relative viability (LC-2-ad; first compound 1.265 µM): 0.366
relative viability (LC-2-ad; first compound 4 µM): 0.302
relative viability (LCLC-103H; first compound 0.04 µM): 0.443
relative viability (LCLC-103H; first compound 0.1265 µM): 0.448
relative viability (LCLC-103H; first compound 0.4 µM): 0.367
relative viability (LCLC-103H; first compound 1.265 µM): 0.357
relative viability (LCLC-103H; first compound 4 µM): 0.29
relative viability (LCLC-97TM1; first compound 0.04 µM): 0.476
relative viability (LCLC-97TM1; first compound 0.1265 µM): 0.674
relative viability (LCLC-97TM1; first compound 0.4 µM): 0.594
relative viability (LCLC-97TM1; first compound 1.265 µM): 0.4
relative viability (LCLC-97TM1; first compound 4 µM): 0.199
relative viability (LK-2; first compound 0.04 µM): 0.204
relative viability (LK-2; first compound 0.1265 µM): 0.21
relative viability (LK-2; first compound 0.4 µM): 0.188
relative viability (LK-2; first compound 1.265 µM): 0.122
relative viability (LK-2; first compound 4 µM): 0.143
relative viability (LU99A; first compound 0.04 µM): 0.299
relative viability (LU99A; first compound 0.1265 µM): 0.268
relative viability (LU99A; first compound 0.4 µM): 0.316
relative viability (LU99A; first compound 1.265 µM): 0.234
relative viability (LU99A; first compound 4 µM): 0.209
relative viability (NCI-H1563; first compound 0.04 µM): 0.735
relative viability (NCI-H1563; first compound 0.1265 µM): 0.704
relative viability (NCI-H1563; first compound 0.4 µM): 0.605
relative viability (NCI-H1563; first compound 1.265 µM): 0.552
relative viability (NCI-H1563; first compound 4 µM): 0.545
relative viability (NCI-H1650; first compound 0.04 µM): 0.51
relative viability (NCI-H1650; first compound 0.1265 µM): 0.447
relative viability (NCI-H1650; first compound 0.4 µM): 0.328
relative viability (NCI-H1650; first compound 1.265 µM): 0.153
relative viability (NCI-H1650; first compound 4 µM): 0.206
relative viability (NCI-H1793; first compound 0.04 µM): 0.237
relative viability (NCI-H1793; first compound 0.1265 µM): 0.343
relative viability (NCI-H1793; first compound 0.4 µM): 0.38
relative viability (NCI-H1793; first compound 1.265 µM): 0.241
relative viability (NCI-H1793; first compound 4 µM): 0.286
relative viability (NCI-H2228; first compound 0.04 µM): 0.731
relative viability (NCI-H2228; first compound 0.1265 µM): 0.657
relative viability (NCI-H2228; first compound 0.4 µM): 0.466
relative viability (NCI-H2228; first compound 1.265 µM): 0.257
relative viability (NCI-H2228; first compound 4 µM): 0.296
relative viability (NCI-H2347; first compound 0.04 µM): 0.328
relative viability (NCI-H2347; first compound 0.1265 µM): 0.536
relative viability (NCI-H2347; first compound 0.4 µM): 0.305
relative viability (NCI-H2347; first compound 1.265 µM): 0.346
relative viability (NCI-H2347; first compound 4 µM): 0.31
relative viability (NCI-H23; first compound 0.04 µM): 0.586
relative viability (NCI-H23; first compound 0.1265 µM): 0.583
relative viability (NCI-H23; first compound 0.4 µM): 0.394
relative viability (NCI-H23; first compound 1.265 µM): 0.198
relative viability (NCI-H23; first compound 4 µM): 0.204
relative viability (NCI-H460; first compound 0.04 µM): 0.594
relative viability (NCI-H460; first compound 0.1265 µM): 0.366
relative viability (NCI-H460; first compound 0.4 µM): 0.259
relative viability (NCI-H460; first compound 1.265 µM): 0.0873
relative viability (NCI-H460; first compound 4 µM): 0.0909
relative viability (NCI-H596; first compound 0.04 µM): 0.809
relative viability (NCI-H596; first compound 0.1265 µM): 0.892
relative viability (NCI-H596; first compound 0.4 µM): 0.539
relative viability (NCI-H596; first compound 1.265 µM): 0.334
relative viability (NCI-H596; first compound 4 µM): 0.283
relative viability (NCI-H727; first compound 0.04 µM): 0.576
relative viability (NCI-H727; first compound 0.1265 µM): 0.582
relative viability (NCI-H727; first compound 0.4 µM): 0.414
relative viability (NCI-H727; first compound 1.265 µM): 0.375
relative viability (NCI-H727; first compound 4 µM): 0.406
relative viability (PC-14; first compound 0.04 µM): 0.713
relative viability (PC-14; first compound 0.1265 µM): 0.638
relative viability (PC-14; first compound 0.4 µM): 0.514
relative viability (PC-14; first compound 1.265 µM): 0.311
relative viability (PC-14; first compound 4 µM): 0.343
relative viability (SW 1573; first compound 0.04 µM): 0.511
relative viability (SW 1573; first compound 0.1265 µM): 0.475
relative viability (SW 1573; first compound 0.4 µM): 0.371
relative viability (SW 1573; first compound 1.265 µM): 0.229
relative viability (SW 1573; first compound 4 µM): 0.233
relative viability (SW 900; first compound 0.04 µM): 0.572
relative viability (SW 900; first compound 0.1265 µM): 0.627
relative viability (SW 900; first compound 0.4 µM): 0.352
relative viability (SW 900; first compound 1.265 µM): 0.165
relative viability (SW 900; first compound 4 µM): 0.166
